Tests used:
Format in all cases: cell-based
Parameters in all cases: unit not given here
Staphylococcus Aureus = test: in vitro antibacterial activity, agar dilution (Staphylococcus aureus)
Procedure: (§1) *minimum inhibitory concentrations were determined by the Agardilution

Staphylococcus Epi = test: in vitro antibacterial activity, agar dilution (Staphylococcus epi)
Procedure: as §1

Streptococcus A = test: in vitro antibacterial activity, agar dilution (Streptococcus A); details: strain C203
Procedure: as §1

Streptococcus pn = test: in vitro antibacterial activity, agar dilution (Streptococcus pn); details: strain PARK
Procedure: as §1

Streptococcus D = test: in vitro antibacterial activity, agar dilution (Streptococcus D)
Procedure: as §1

H. Influ. = test: in vitro antibacterial activity, agar dilution (H. influ.)
Procedure: as §1

E. coli = test: in vitro antibacterial activity, agar dilution (E. coli)
Procedure: as §1

Klebsiella = test: in vitro antibacterial activity, agar dilution (Klebsiella)
Procedure: as §1

Enterbacter Aerogenes = test: in vitro antibacterial activity, agar dilution (Enterobacter aerogenes)
Procedure: as §1

Enterbacter Cloacea = test: in vitro antibacterial activity, agar dilution (Enterobacter cloacae)
Procedure: as §1

Salmonella = test: in vitro antibacterial activity, agar dilution (Salmonella)
Procedure: as §1

Pseudomonas = test: in vitro antibacterial activity, agar dilution (Pseudomonas)
Procedure: as §1

Serratia = test: in vitro antibacterial activity, agar dilution (Serratia)
Procedure: as §1

Shig. sonn = test: in vitro antibacterial activity, agar dilution (Shig. sonn); details: strain N9
Procedure: as §1

Proteus morg = test: in vitro antibacterial activity, agar dilution (Proteus morg); details: strain PR15
Procedure: as §1

Proteus incon = test: in vitro antibacterial activity, agar dilution (Proteus incon); details: strain PR33
Procedure: as §1

Proteus rett = test: in vitro antibacterial activity, agar dilution (Proteus rett); details: strain C24
Procedure: as §1

Citro = test: in vitro antibacterial activity, agar dilution (Citro); details: strain CF17
Procedure: as §1

Acin = test: in vitro antibacterial activity, agar dilution (Acin); details: strain AC12
Procedure: as §1

Q: Which results are given for `CO/N=C(\C(=O)N[C@@H]1C(=O)N2C(C(=O)O)=C(c3csc(-c4ccc(F)cc4)n3)CC[C@H]12)c1csc(N)n1` [Example 37, 7β-[(2-aminothiazol-4-yl)-Z-methoximinoacetylamino]-1-carba-(1-dethia)-3-[2-(4-fluorophenyl)thiazol-4-yl]-3-cephem-4-carboxylic acid]?
A: minimum inhibitory concentration (Staphylococcus Aureus; strain S13E): > 128; minimum inhibitory concentration (Staphylococcus Aureus; strain V41): 2; minimum inhibitory concentration (Staphylococcus Aureus; strain X1.1): 1; minimum inhibitory concentration (Staphylococcus Aureus; strain X400): > 128; minimum inhibitory concentration (Staphylococcus Epi; strain 222): 2; minimum inhibitory concentration (Staphylococcus Epi; strain 270): 32; minimum inhibitory concentration (Streptococcus A): < .008; minimum inhibitory concentration (Streptococcus pn): < .008; minimum inhibitory concentration (Streptococcus D; strain 2041): 4; minimum inhibitory concentration (Streptococcus D; strain X66): > 128; minimum inhibitory concentration (H. Influ.; res, strain 76): .015; minimum inhibitory concentration (H. Influ.; sens, strain C.L.): .03; minimum inhibitory concentration (E. coli; strain EC14): .5; minimum inhibitory concentration (E. coli; strain N10): 2; minimum inhibitory concentration (Klebsiella; strain KAE): 2; minimum inhibitory concentration (Klebsiella; strain X26): < .008; minimum inhibitory concentration (Klebsiella; strain X68): .5; minimum inhibitory concentration (Enterbacter Aerogenes; strain C32): 2; minimum inhibitory concentration (Enterbacter Aerogenes; strain EB17): 1; minimum inhibitory concentration (Enterbacter Cloacea; strain 265A): > 128; minimum inhibitory concentration (Enterbacter Cloacea; strain EB5): 2; minimum inhibitory concentration (Salmonella; strain 1335): 2; minimum inhibitory concentration (Salmonella; strain X514): .5; minimum inhibitory concentration (Pseudomonas; strain PS18): > 128; minimum inhibitory concentration (Pseudomonas; strain PS72): > 128; minimum inhibitory concentration (Pseudomonas; strain X239): > 128; minimum inhibitory concentration (Pseudomonas; strain X528): > 128; minimum inhibitory concentration (Serratia; strain SE3): 8; minimum inhibitory concentration (Serratia; strain X99): 4; minimum inhibitory concentration (Shig. sonn): 1; minimum inhibitory concentration (Proteus morg): 2; minimum inhibitory concentration (Proteus incon): .125; minimum inhibitory concentration (Proteus rett): .125; minimum inhibitory concentration (Citro): 4; minimum inhibitory concentration (Acin): 128

Q: For `CO/N=C(\C(=O)N[C@@H]1C(=O)N2C(C(=O)O)=C(c3csc(C(c4ccccc4)c4ccccn4)n3)CC[C@H]12)c1csc(N)n1` (stereo partly drawn) [Example 38, 7β-[(2-aminothiazol-4-yl)-Z-methoximinoacetylamino]-1-carba-(1-dethia)-3-[2-(phenyl)(2-pyridyl)methyl)thiazol-4-yl-3-cephem-4-carboxylic acid], which minimum inhibitory concentration (Staphylococcus Aureus; strain S13E) is on record?
A: > 128

Q: And the minimum inhibitory concentration (Staphylococcus Aureus; strain V41)?
A: 32

Q: What about the minimum inhibitory concentration (Staphylococcus Aureus; strain X1.1) of the same compound?
A: 4

Q: What about the minimum inhibitory concentration (Staphylococcus Aureus; strain X400) of the same compound?
A: > 128

Q: And the minimum inhibitory concentration (Staphylococcus Epi; strain 222)?
A: 64

Q: What about the minimum inhibitory concentration (Staphylococcus Epi; strain 270) of the same compound?
A: 64

Q: What about the minimum inhibitory concentration (Streptococcus A) of the same compound?
A: < .008

Q: And the minimum inhibitory concentration (Streptococcus pn)?
A: .015

Q: And the minimum inhibitory concentration (Streptococcus D; strain 2041)?
A: 8

Q: And the minimum inhibitory concentration (Streptococcus D; strain X66)?
A: > 128

Q: What about the minimum inhibitory concentration (H. Influ.; res, strain 76) of the same compound?
A: .125

Q: What about the minimum inhibitory concentration (H. Influ.; sens, strain C.L.) of the same compound?
A: 2

Q: And the minimum inhibitory concentration (E. coli; strain EC14)?
A: 4

Q: What about the minimum inhibitory concentration (E. coli; strain N10) of the same compound?
A: 8

Q: And the minimum inhibitory concentration (E. coli; strain TEM)?
A: 4

Q: And the minimum inhibitory concentration (Klebsiella; strain KAE)?
A: 128

Q: And the minimum inhibitory concentration (Klebsiella; strain X26)?
A: .125

Q: And the minimum inhibitory concentration (Klebsiella; strain X68)?
A: 4

Q: And the minimum inhibitory concentration (Enterbacter Aerogenes; strain C32)?
A: 8

Q: And the minimum inhibitory concentration (Enterbacter Aerogenes; strain EB17)?
A: 8

Q: And the minimum inhibitory concentration (Enterbacter Cloacea; strain 265A)?
A: > 128

Q: What about the minimum inhibitory concentration (Enterbacter Cloacea; strain EB5) of the same compound?
A: 8

Q: What about the minimum inhibitory concentration (Salmonella; strain 1335) of the same compound?
A: 8

Q: And the minimum inhibitory concentration (Salmonella; strain X514)?
A: 4

Q: What about the minimum inhibitory concentration (Pseudomonas; strain PS18) of the same compound?
A: > 128

Q: What about the minimum inhibitory concentration (Pseudomonas; strain PS72) of the same compound?
A: > 128

Q: What about the minimum inhibitory concentration (Pseudomonas; strain X239) of the same compound?
A: > 128

Q: What about the minimum inhibitory concentration (Pseudomonas; strain X528) of the same compound?
A: > 128

Q: What about the minimum inhibitory concentration (Serratia; strain SE3) of the same compound?
A: 64

Q: And the minimum inhibitory concentration (Serratia; strain X99)?
A: 8

Q: What about the minimum inhibitory concentration (Shig. sonn) of the same compound?
A: 8

Q: And the minimum inhibitory concentration (Proteus morg)?
A: 32

Q: And the minimum inhibitory concentration (Proteus incon)?
A: 4

Q: What about the minimum inhibitory concentration (Proteus rett) of the same compound?
A: 4

Q: What about the minimum inhibitory concentration (Citro) of the same compound?
A: 32

Q: And the minimum inhibitory concentration (Acin)?
A: 64

Q: Which results are given for `CO/N=C(\C(=O)N[C@@H]1C(=O)N2C(C(=O)O)=C(c3csc(N)n3)CC[C@H]12)c1csc(N)n1` [Example 39]?
A: minimum inhibitory concentration (Staphylococcus Aureus; strain S13E): > 128; minimum inhibitory concentration (Staphylococcus Aureus; strain V41): 8; minimum inhibitory concentration (Staphylococcus Aureus; strain X1.1): 4; minimum inhibitory concentration (Staphylococcus Aureus; strain X400): > 128; minimum inhibitory concentration (Staphylococcus Epi; strain 222): 32; minimum inhibitory concentration (Staphylococcus Epi; strain 270): 16; minimum inhibitory concentration (Streptococcus A): < .008; minimum inhibitory concentration (Streptococcus pn): .015; minimum inhibitory concentration (Streptococcus D; strain 2041): 8; minimum inhibitory concentration (Streptococcus D; strain X66): > 128; minimum inhibitory concentration (H. Influ.; res, strain 76): .06; minimum inhibitory concentration (H. Influ.; sens, strain C.L.): .06; minimum inhibitory concentration (E. coli; strain EC14): .5; minimum inhibitory concentration (E. coli; strain N10): 1; minimum inhibitory concentration (E. coli; strain TEM): .5; minimum inhibitory concentration (Klebsiella; strain KAE): 2; minimum inhibitory concentration (Klebsiella; strain X26): .015; minimum inhibitory concentration (Klebsiella; strain X68): .5; minimum inhibitory concentration (Enterbacter Aerogenes; strain C32): 1; minimum inhibitory concentration (Enterbacter Aerogenes; strain EB17): .5; minimum inhibitory concentration (Enterbacter Cloacea; strain 265A): > 128; minimum inhibitory concentration (Enterbacter Cloacea; strain EB5): 2; minimum inhibitory concentration (Salmonella; strain 1335): 2; minimum inhibitory concentration (Salmonella; strain X514): 1; minimum inhibitory concentration (Pseudomonas; strain PS18): > 128; minimum inhibitory concentration (Pseudomonas; strain PS72): > 128; minimum inhibitory concentration (Pseudomonas; strain X239): > 128; minimum inhibitory concentration (Pseudomonas; strain X528): > 128; minimum inhibitory concentration (Serratia; strain SE3): 8; minimum inhibitory concentration (Serratia; strain X99): 1; minimum inhibitory concentration (Shig. sonn): .25; minimum inhibitory concentration (Proteus morg): 4; minimum inhibitory concentration (Proteus incon): .25; minimum inhibitory concentration (Proteus rett): .25; minimum inhibitory concentration (Citro): 8; minimum inhibitory concentration (Acin): 128
